Measurements as given in patent publication US20050043326A1, “Compounds” (Pfizer Inc, priority 2003, published 2005).

Experiments:
PDE4 = PDE4 inhibition: hydrolysis of tritium labelled cAMP to AMP, SPA bead scintillation counting; assay type: biochemical; details: tritium labelled cAMP incubated with PDE4, yttrium silicate SPA beads
Procedure: The PDE4 inhibitory activity of the nicotinamide derivatives of the formula (I) is determined by the ability of compounds to inhibit the hydrolysis of cAMP to AMP by PDE4 (Thompson J W, Teraski W L, Epstein P M, Strada S J., “Assay of nucleotidephosphodiesterase and resolution of multiple molecular forms of the isoenzyme”, Advances in cyclic nucleotides research, edited by Brooker G, Greengard P, Robinson G A. Raven Press, New York 1979, 10, p. 69-92). Tritium labelled cAMP is incubated with PDE4. Following incubation, the radiolabelled AMP produced is able to bind yttrium silicate SPA beads. These SPA beads subsequently produce light that can be quantified by scintillation counting. The addition of a PDE4 inhibitor prevents the formation of AMP from cAMP and counts are diminished. The IC50 of a PDE4 inhibitor can be defined as the concentration of a compound that leads to a 50% reduction in counts compared to the PDE4 only (no inhibitor) control wells.
(§1) Data are presented below for the Examples in which the TNFα and PDE4 inhibition are presented as IC50 values in nM.

[1] = test system: TNFα release from human peripheral blood mononuclear cells; assay: Inhibition of TNFα release from LPS-stimulated human peripheral blood mononuclear cells (TNFα screen); assay type: cell-based; details: PBMC, 18 hours incubation, TNFα in supernatant by ELISA
Procedure: Venous blood is collected from healthy volunteers and the mononuclear cells purified by centrifugation through Histopaque (Ficoll) cushions. TNFα production from these cells is stimulated by addition of lipopolysaccharide. After 18 hours incubation in the presence of LPS, the cell supernatant is removed and the concentration of TNFα in the supernatant determined by ELISA.
as §1

IC50 (PDE4) | IC50 [1] | Structure (SMILES)
500 pM | 2 pM | Cc1ccc(C(=O)N[C@H]2CC[C@@H](NC(=O)c3cc(F)cnc3OC3CCSCC3)CC2)c(O)c1 [Example 63, Syn-5-Fluoro-N-[4-(2-hydroxy-4-methyl-benzoylamino)-cyclohexyl]-2-(tetrahydro-thiopyran-4-yloxy)-nicotinamide]
3500 pM | 1000 pM | O=C(N[C@H]1CC[C@@H](NS(=O)(=O)c2c(O)ccc3nsnc23)CC1)c1cc(F)cnc1OC1CCSCC1 [Example 74, Syn-5-Fluoro-N-[4-(5-hydroxy-benzo[1,2,5]thiadiazole-4-sulfonylamino)-cyclohexyl]-2-(tetrahydro-thiopyran-4-yloxy)-nicotinamide]
